According to BindingDB's records for doi:10.1021/jm000145g (University of Oxford, 2001):
Counter-ions that a name gives are not always drawn.

Molecular target: Prostate-specific antigen (Homo sapiens) (UniProt P07288)
Experiment: Inhibition of Prostate specific antigen PSA (Serine Protease)

Sequence of Prostate-specific antigen (Homo sapiens) (P07288 whole entry, looked up): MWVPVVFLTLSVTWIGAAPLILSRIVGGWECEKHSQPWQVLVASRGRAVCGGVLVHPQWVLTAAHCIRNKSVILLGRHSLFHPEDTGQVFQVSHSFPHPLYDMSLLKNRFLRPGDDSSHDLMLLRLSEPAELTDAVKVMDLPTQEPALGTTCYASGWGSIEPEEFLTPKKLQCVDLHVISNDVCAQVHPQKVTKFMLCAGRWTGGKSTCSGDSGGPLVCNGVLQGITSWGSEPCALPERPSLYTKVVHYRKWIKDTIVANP

| IC50 | Structure (SMILES) |
| --- | --- |
| > 30 µM | Cc1ccc(S(=O)(=O)N2C(=O)[C@@H](Cc3ccccc3)[C@H]2C(=O)OCc2ccccc2)cc1 [3-Benzyl-4-oxo-1-(toluene-4-sulfonyl)-azetidine-2-carboxylic acid benzyl ester] |
| 1.34 µM | NCc1ccc(COC(=O)[C@@H]2[C@H](Cc3ccccc3)C(=O)N2C(=O)Cc2cccc(C(=O)OCc3ccccc3)c2)cc1 [3-Benzyl-1-[2-(3-benzyloxycarbonyl-phenyl)-acetyl]-4-oxo-azetidine-2-carboxylic acid 4-aminomethyl-benzyl ester; TFA] |
| 11.5 µM | O=C(OC[C@@H]1[C@H](Cc2ccccc2)C(=O)N1S(=O)(=O)c1ccc([N+](=O)[O-])cc1)c1ccccc1 [Benzoic acid 3-benzyl-1-(4-nitro-benzenesulfonyl)-4-oxo-azetidin-2-ylmethyl ester] |
| 1.59 µM | O=C(OC[C@@H]1[C@H](Cc2ccccc2)C(=O)N1C(=O)c1ccccc1)c1ccccc1 [Benzoic acid 1-benzoyl-3-benzyl-4-oxo-azetidin-2-ylmethyl ester] |
| 24.3 µM | O=C(O)c1ccc(COC(=O)[C@@H]2[C@H](Cc3ccccc3)C(=O)N2C(=O)c2ccccc2)cc1 [1-Benzoyl-3-benzyl-4-oxo-azetidine-2-carboxylic acid 4-carboxy-benzyl ester] |
| 3.08 µM | O=C(OC[C@@H]1[C@H](Cc2ccccc2)C(=O)N1S(=O)(=O)c1ccccc1)c1ccccc1 [Benzoic acid 1-benzenesulfonyl-3-benzyl-4-oxo-azetidin-2-ylmethyl ester] |
| > 100 µM | O=C(O)c1ccc(C(=O)OC[C@@H]2[C@H](Cc3ccccc3)C(=O)N2C(=O)c2ccccc2)cc1 [Terephthalic acid mono-(1-benzoyl-3-benzyl-4-oxo-azetidin-2-ylmethyl) ester] |
| > 30 µM | O=C(O)c1ccc(COC(=O)[C@@H]2[C@H](Cc3ccccc3)C(=O)N2C(=O)Cc2cccc(C(=O)O)c2)cc1 [3-Benzyl-1-[2-(3-carboxy-phenyl)-acetyl]-4-oxo-azetidine-2-carboxylic acid 4-carboxy-benzyl ester] |
| 4.79 µM | Cc1ccc(S(=O)(=O)N2C(=O)[C@@H](Cc3ccccc3)[C@H]2COC(=O)c2ccccc2)cc1 [Benzoic acid 3-benzyl-4-oxo-1-(toluene-4-sulfonyl)-azetidin-2-ylmethyl ester] |
| > 100 µM | O=C(OCc1ccccc1)c1cccc(CC(=O)N2C(=O)[C@@H](Cc3ccccc3)[C@H]2COC(=O)c2ccccc2)c1 [3-[2-(2-Benzoyloxymethyl-3-benzyl-4-oxo-azetidin-1-yl)-2-oxo-ethyl]-benzoic acid benzyl ester] |
| 9.14 µM | O=C(OCc1ccccc1)[C@@H]1[C@H](Cc2ccc(O)cc2)C(=O)N1C(=O)c1ccccc1 [1-Benzoyl-3-(4-hydroxy-benzyl)-4-oxo-azetidine-2-carboxylic acid benzyl ester] |
| 2.19 µM | CCS(=O)(=O)N1C(=O)[C@@H](Cc2ccccc2)[C@H]1COC(=O)c1ccccc1 [Benzoic acid 3-benzyl-1-ethanesulfonyl-4-oxo-azetidin-2-ylmethyl ester] |
